From patent US20250179061A1 (SIRONAX LTD., priority 2022, published 2025)
Where a name gives a salt, the structure may show the parent alone.

system: HT-29 cells; assay: HT-29 necroptosis cell viability assay (TNF-α/SMAC mimetic/zVAD-FMK, CellTiter-Glo); format: cell-based; conditions: HT-29 cells stimulated with TNF-α (10 ng/ml), SMAC mimetic (6 μM) and zVAD-FMK (10 μM); 20 hours; CellTiter-Glo ATP luminescence; geometric mean IC50 from 10 points; read-out: Activity
Outline: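 HT-29 cells (~5,000/well, overnight) in FBS-free McCoy's 5A with TNF-α 10 ng/ml, SMAC mimetic 6 μM and zVAD-FMK 10 μM plus 10-point 1:3 compound titration, 20 h at 37°C. ATP measured by CellTiter-Glo luminescence; IC50 as geometric mean of duplicates.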

`Cc1nc(N2C[C@@H](N)[C@@H]2C)sc1Oc1ccc(-n2ncn(Cc3c(F)cccc3F)c2=O)cc1` [Example 72, 2-(4-((2-((2S,3R)-3-amino-2-methylazetidin-1-yl)-4-methylthiazol-5-yl)oxy)phenyl)-4-(2,6-difluorobenzyl)-2,4-dihydro-3H-1,2,4-triazol-3-one] and `Cc1nc(C(N)=O)sc1Oc1ccc(-n2nc3n(c2=O)C(c2ccccc2)CC3F)cc1F` (stereo not drawn) [Example 80, 5-(2-fluoro-4-(7-fluoro-3-oxo-5-phenyl-3,5,6,7-tetrahydro-2H-pyrrolo[2,1-c][1,2,4]triazol-2-yl)phenoxy)-4-methylthiazole-2-carboxamide] cannot be ordered by IC50: less than 100 nM for the first, less than 100 nM for the second.

same assay, conditions: Homo sapiens; HT-29 cells stimulated with TNF-α (10 ng/ml), SMAC mimetic (6 μM) and zVAD-FMK (10 μM); 20 hours; CellTiter-Glo ATP luminescence; geometric mean IC50 from 10 points; read-out: Activity

`Cc1nc(N2CCC(C#N)C2)sc1Oc1ccc(-n2ncn(Cc3c(F)cccc3F)c2=O)cc1` (stereo not drawn) [Example 54, 1-(5-(4-(4-(2,6-difluorobenzyl)-5-oxo-4,5-dihydro-1H-1,2,4-triazol-1-yl)phenoxy)-4-methylthiazol-2-yl)pyrrolidine-3-carbonitrile] and `Cc1nc(N2CC[C@@H]2CN)sc1Oc1ccc(-n2ncn(Cc3c(F)cccc3F)c2=O)cc1` [Example 70, (R)-2-(4-((2-(2-(aminomethyl)azetidin-1-yl)-4-methylthiazol-5-yl)oxy)phenyl)-4-(2,6-difluorobenzyl)-2,4-dihydro-3H-1,2,4-triazol-3-one] cannot be ordered by IC50: less than 100 nM for the first, less than 100 nM for the second.

`COC1(C#N)CN(c2nc(C)c(Oc3ccc(-n4ncn(Cc5c(F)cccc5F)c4=O)cc3)s2)C1` [Example 55, 1-(5-(4-(4-(2,6-difluorobenzyl)-5-oxo-4,5-dihydro-1H-1,2,4-triazol-1-yl)phenoxy)-4-methylthiazol-2-yl)-3-methoxyazetidine-3-carbonitrile] and `Cc1nc(N2CC(N)(CO)C2)sc1Oc1ccc(-n2ncn(Cc3c(F)cccc3F)c2=O)cc1` [Example 71, 2-(4-((2-(3-amino-3-(hydroxymethyl)azetidin-1-yl)-4-methylthiazol-5-yl)oxy)phenyl)-4-(2,6-difluorobenzyl)-2,4-dihydro-3H-1,2,4-triazol-3-one] cannot be ordered by IC50: less than 100 nM for the first, less than 100 nM for the second.

`Cc1nc(N2CCOC2=O)sc1Oc1ccc(-n2ncn(Cc3c(F)cccc3F)c2=O)cc1F` [Example 56, 3-(5-(4-(4-(2,6-difluorobenzyl)-5-oxo-4,5-dihydro-1H-1,2,4-triazol-1-yl)-2-fluorophenoxy)-4-methylthiazol-2-yl)oxazolidin-2-one] and `Cc1nc(N2C[C@@H](O)CC2=O)sc1Oc1ccc(-n2ncn(Cc3c(F)cccc3F)c2=O)cc1F` [Example 76, (S)-4-(2,6-difluorobenzyl)-2-(3-fluoro-4-((2-(4-hydroxy-2-oxopyrrolidin-1-yl)-4-methylthiazol-5-yl)oxy)phenyl)-2,4-dihydro-3H-1,2,4-triazol-3-one] cannot be ordered by IC50: less than 100 nM for the first, less than 100 nM for the second.

`Cc1nc(N2CC(C)(OC(F)(F)F)C2)sc1Oc1ccc(-n2ncn(Cc3c(F)cccc3F)c2=O)cc1` [Example 57, 4-(2,6-difluorobenzyl)-2-(4-((4-methyl-2-(3-methyl-3-(trifluoromethoxy)azetidin-1-yl)thiazol-5-yl)oxy)phenyl)-2,4-dihydro-3H-1,2,4-triazol-3-one] and `CCOC1CN(c2nc(C)c(Oc3ccc(-n4ncn(Cc5c(F)cccc5F)c4=O)cc3)s2)C1` [Example 74, 4-(2,6-difluorobenzyl)-2-(4-((2-(3-ethoxyazetidin-1-yl)-4-methylthiazol-5-yl)oxy)phenyl)-2,4-dihydro-3H-1,2,4-triazol-3-one] cannot be ordered by IC50: less than 100 nM for the first, less than 100 nM for the second.

`Cc1ncsc1Cc1ccc(-n2ncn(Cc3c(F)cccc3F)c2=O)cc1F` [Example 59, 4-(2,6-difluorobenzyl)-2-(3-fluoro-4-((4-methylthiazol-5-yl)methyl)phenyl)-2,4-dihydro-3H-1,2,4-triazol-3-one] and `Cc1nc(N2CC(N)(CF)C2)sc1Cc1ccc(-n2ncn(Cc3c(F)cccc3F)c2=O)cc1F` [Example 62, 2-(4-((2-(3-amino-3-(fluoromethyl)azetidin-1-yl)-4-methylthiazol-5-yl)methyl)-3-fluorophenyl)-4-(2,6-difluorobenzyl)-2,4-dihydro-3H-1,2,4-triazol-3-one trifluoroacetate] cannot be ordered by IC50: less than 100 nM for the first, less than 100 nM for the second.

`Cc1nc(N2CCC(N)(C(F)(F)F)C2)sc1Cc1ccc(-n2ncn(Cc3c(F)cccc3F)c2=O)cc1F` (stereo not drawn) [Example 60, 2-(4-((2-(3-amino-3-(trifluoromethyl)pyrrolidin-1-yl)-4-methylthiazol-5-yl)methyl)-3-fluorophenyl)-4-(2,6-difluorobenzyl)-2,4-dihydro-3H-1,2,4-triazol-3-one formate] and `Cc1nc(N2C[C@H](C#N)[C@@H]2C)sc1Cc1ccc(-n2ncn(Cc3c(F)cccc3F)c2=O)cc1F` [Example 61, (2S,3S)-1-(5-(4-(4-(2,6-difluorobenzyl)-5-oxo-4,5-dihydro-1H-1,2,4-triazol-1-yl)-2-fluorobenzyl)-4-methylthiazol-2-yl)-2-methylazetidine-3-carbonitrile formate] cannot be ordered by IC50: less than 100 nM for the first, less than 100 nM for the second.

`Cc1nc(N2C[C@H](C#N)[C@@H]2C)sc1Cc1ccc(-n2ncn(Cc3c(F)cccc3F)c2=O)cc1` [Example 63, (2S,3S)-1-(5-(4-(4-(2,6-difluorobenzyl)-5-oxo-4,5-dihydro-1H-1,2,4-triazol-1-yl)benzyl)-4-methylthiazol-2-yl)-2-methylazetidine-3-carbonitrile] and `Cc1nc(N2C[C@H](O)[C@@H]2C)sc1Cc1ccc(-n2ncn(Cc3c(F)cccc3F)c2=O)cc1` [Example 64, 4-(2,6-difluorobenzyl)-2-(4-((2-((2S,3S)-3-hydroxy-2-methylazetidin-1-yl)-4-methylthiazol-5-yl)methyl)phenyl)-2,4-dihydro-3H-1,2,4-triazol-3-one] cannot be ordered by IC50: less than 100 nM for the first, less than 100 nM for the second.

`Cc1nn(-c2ccc(Cc3ccccc3)cc2)c(=O)n1Cc1ccccc1` [Example 65, 4-benzyl-2-(4-benzylphenyl)-5-methyl-2,4-dihydro-3H-1,2,4-triazol-3-one] and `O=c1n(Cc2ccccc2)cnn1-c1ccc(Cc2ccccc2)cc1` [Example 66, 4-benzyl-2-(4-benzylphenyl)-2,4-dihydro-3H-1,2,4-triazol-3-one] cannot be ordered by IC50: less than 100 nM for the first, less than 100 nM for the second.

`Cc1nn(-c2ccc(N(C)c3ccccc3)cc2)c(=O)n1Cc1ccccc1` [Example 67, 4-benzyl-5-methyl-2-(4-(methyl(phenyl)amino)phenyl)-2,4-dihydro-3H-1,2,4-triazol-3-one] and `Cc1nc(Oc2ccc(-n3ncn(Cc4c(F)cccc4F)c3=O)cc2)sc1C` [Example 78, 4-(2,6-difluorobenzyl)-2-(4-((4,5-dimethylthiazol-2-yl)oxy)phenyl)-2,4-dihydro-3H-1,2,4-triazol-3-one] fall in the same range of IC50: 100 to 1000 nM for the first, 100 to 1000 nM for the second.

`Cc1nc(N2CC(C(C)(C)N)C2)sc1Oc1ccc(-n2ncn(Cc3c(F)cccc3F)c2=O)cc1` [Example 68, 2-(4-((2-(3-(2-aminopropan-2-yl)azetidin-1-yl)-4-methylthiazol-5-yl)oxy)phenyl)-4-(2,6-difluorobenzyl)-2,4-dihydro-3H-1,2,4-triazol-3-one] and `Cc1nc(N2C[C@@H](N)[C@@H]2C)sc1Oc1ccc(-n2ncn(Cc3c(F)cccc3F)c2=O)cc1` [Example 69, 2-(4-((2-((2S,3R)-3-amino-2-methylazetidin-1-yl)-4-methylthiazol-5-yl)oxy)phenyl)-4-(2,6-difluorobenzyl)-2,4-dihydro-3H-1,2,4-triazol-3-one] cannot be ordered by IC50: less than 100 nM for the first, less than 100 nM for the second.

`Cc1nc(N2C[C@H](N)[C@@H]2C)sc1Oc1ccc(-n2ncn(Cc3c(F)cccc3F)c2=O)cc1` [Example 73, 2-(4-((2-((2S,3S)-3-amino-2-methylazetidin-1-yl)-4-methylthiazol-5-yl)oxy)phenyl)-4-(2,6-difluorobenzyl)-2,4-dihydro-3H-1,2,4-triazol-3-one] and `Cc1nc(N2CC3(CCOCC3)C2)sc1Oc1ccc(-n2ncn(Cc3c(F)cccc3F)c2=O)cc1` [Example 75, 4-(2,6-difluorobenzyl)-2-(4-((4-methyl-2-(7-oxa-2-azaspiro[3.5]nonan-2-yl)thiazol-5-yl)oxy)phenyl)-2,4-dihydro-3H-1,2,4-triazol-3-one] cannot be ordered by IC50: less than 100 nM for the first, less than 100 nM for the second.

First: N#Cc1cnc(Oc2ccc(-n3ncn(Cc4c(F)cccc4F)c3=O)cc2)s1 [Example 77, 2-(4-(4-(2,6-difluorobenzyl)-5-oxo-4,5-dihydro-1H-1,2,4-triazol-1-yl)phenoxy)thiazole-5-carbonitrile]
Second: N#Cc1ncc(Oc2ccc(-n3ncn(Cc4c(F)cccc4F)c3=O)cc2)s1 [Example 79, 5-(4-(4-(2,6-difluorobenzyl)-5-oxo-4,5-dihydro-1H-1,2,4-triazol-1-yl)phenoxy)thiazole-2-carbonitrile]
The IC50 of the first is higher: 100 to 1000 nM for the first, less than 100 nM for the second. The second is the more potent here.

First: Cc1nc(C(N)=O)sc1Oc1ccc(-n2nc3n(c2=O)C(c2ccccc2)CC3F)cc1F (stereo not drawn) [Example 81, 5-(2-fluoro-4-(7-fluoro-3-oxo-5-phenyl-3,5,6,7-tetrahydro-2H-pyrrolo[2,1-c][1,2,4]triazol-2-yl)phenoxy)-4-methylthiazole-2-carboxamide]
Second: NC(=O)c1cnc(Oc2ccc(-n3ncn(Cc4c(F)cccc4F)c3=O)cc2)s1 [Example 82, 2-(4-(4-(2,6-difluorobenzyl)-5-oxo-4,5-dihydro-1H-1,2,4-triazol-1-yl)phenoxy)thiazole-5-carboxamide]
The IC50 of the first is lower: less than 100 nM for the first, 100 to 1000 nM for the second.

Compared with `O=c1n(Cc2c(F)cccc2F)cnn1-c1ccc(Oc2nc3c(s2)CCCC3)cc1` [Example 83, 4-(2,6-difluorobenzyl)-2-(4-((4,5,6,7-tetrahydrobenzo[d]thiazol-2-yl)oxy)phenyl)-2,4-dihydro-3H-1,2,4-triazol-3-one], `CCOC1CN(c2ncc(Oc3ccc(-n4ncn(Cc5c(F)cccc5F)c4=O)cc3)s2)C1` [Example 84, 4-(2,6-difluorobenzyl)-2-(4-((2-(3-ethoxyazetidin-1-yl)thiazol-5-yl)oxy)phenyl)-2,4-dihydro-3H-1,2,4-triazol-3-one] is lower in IC50: 100 to 1000 nM for the first, less than 100 nM for the second. The second is the more potent here.
